Eight compounds from US9340590B2 (priority 2011, dated 2016) can be followed below.

SMILES strings stand for the structures. Positions of bridges follow the written chain, without caps; N, C: chain ends. Residues, ends and D or L forms follow the SMILES beside them.

Common to all, as to test: cell-based
One assay deals with hNav1.7 (Homo sapiens, UniProt Q15858). The assay is classed as cell-based. Conditions: IonWorks Quattro, use-dependent protocol, hNav1.7; read-out: IWQ Use Nav1.7.
For the next assay, the target named is hNav1.5 (Homo sapiens, UniProt Q14524). The note with it: IonWorks Quattro, use-dependent protocol, hNav1.5; read-out: IWQ Use Nav1.5.
hNav1.5, sequence (Q14524 whole entry, looked up): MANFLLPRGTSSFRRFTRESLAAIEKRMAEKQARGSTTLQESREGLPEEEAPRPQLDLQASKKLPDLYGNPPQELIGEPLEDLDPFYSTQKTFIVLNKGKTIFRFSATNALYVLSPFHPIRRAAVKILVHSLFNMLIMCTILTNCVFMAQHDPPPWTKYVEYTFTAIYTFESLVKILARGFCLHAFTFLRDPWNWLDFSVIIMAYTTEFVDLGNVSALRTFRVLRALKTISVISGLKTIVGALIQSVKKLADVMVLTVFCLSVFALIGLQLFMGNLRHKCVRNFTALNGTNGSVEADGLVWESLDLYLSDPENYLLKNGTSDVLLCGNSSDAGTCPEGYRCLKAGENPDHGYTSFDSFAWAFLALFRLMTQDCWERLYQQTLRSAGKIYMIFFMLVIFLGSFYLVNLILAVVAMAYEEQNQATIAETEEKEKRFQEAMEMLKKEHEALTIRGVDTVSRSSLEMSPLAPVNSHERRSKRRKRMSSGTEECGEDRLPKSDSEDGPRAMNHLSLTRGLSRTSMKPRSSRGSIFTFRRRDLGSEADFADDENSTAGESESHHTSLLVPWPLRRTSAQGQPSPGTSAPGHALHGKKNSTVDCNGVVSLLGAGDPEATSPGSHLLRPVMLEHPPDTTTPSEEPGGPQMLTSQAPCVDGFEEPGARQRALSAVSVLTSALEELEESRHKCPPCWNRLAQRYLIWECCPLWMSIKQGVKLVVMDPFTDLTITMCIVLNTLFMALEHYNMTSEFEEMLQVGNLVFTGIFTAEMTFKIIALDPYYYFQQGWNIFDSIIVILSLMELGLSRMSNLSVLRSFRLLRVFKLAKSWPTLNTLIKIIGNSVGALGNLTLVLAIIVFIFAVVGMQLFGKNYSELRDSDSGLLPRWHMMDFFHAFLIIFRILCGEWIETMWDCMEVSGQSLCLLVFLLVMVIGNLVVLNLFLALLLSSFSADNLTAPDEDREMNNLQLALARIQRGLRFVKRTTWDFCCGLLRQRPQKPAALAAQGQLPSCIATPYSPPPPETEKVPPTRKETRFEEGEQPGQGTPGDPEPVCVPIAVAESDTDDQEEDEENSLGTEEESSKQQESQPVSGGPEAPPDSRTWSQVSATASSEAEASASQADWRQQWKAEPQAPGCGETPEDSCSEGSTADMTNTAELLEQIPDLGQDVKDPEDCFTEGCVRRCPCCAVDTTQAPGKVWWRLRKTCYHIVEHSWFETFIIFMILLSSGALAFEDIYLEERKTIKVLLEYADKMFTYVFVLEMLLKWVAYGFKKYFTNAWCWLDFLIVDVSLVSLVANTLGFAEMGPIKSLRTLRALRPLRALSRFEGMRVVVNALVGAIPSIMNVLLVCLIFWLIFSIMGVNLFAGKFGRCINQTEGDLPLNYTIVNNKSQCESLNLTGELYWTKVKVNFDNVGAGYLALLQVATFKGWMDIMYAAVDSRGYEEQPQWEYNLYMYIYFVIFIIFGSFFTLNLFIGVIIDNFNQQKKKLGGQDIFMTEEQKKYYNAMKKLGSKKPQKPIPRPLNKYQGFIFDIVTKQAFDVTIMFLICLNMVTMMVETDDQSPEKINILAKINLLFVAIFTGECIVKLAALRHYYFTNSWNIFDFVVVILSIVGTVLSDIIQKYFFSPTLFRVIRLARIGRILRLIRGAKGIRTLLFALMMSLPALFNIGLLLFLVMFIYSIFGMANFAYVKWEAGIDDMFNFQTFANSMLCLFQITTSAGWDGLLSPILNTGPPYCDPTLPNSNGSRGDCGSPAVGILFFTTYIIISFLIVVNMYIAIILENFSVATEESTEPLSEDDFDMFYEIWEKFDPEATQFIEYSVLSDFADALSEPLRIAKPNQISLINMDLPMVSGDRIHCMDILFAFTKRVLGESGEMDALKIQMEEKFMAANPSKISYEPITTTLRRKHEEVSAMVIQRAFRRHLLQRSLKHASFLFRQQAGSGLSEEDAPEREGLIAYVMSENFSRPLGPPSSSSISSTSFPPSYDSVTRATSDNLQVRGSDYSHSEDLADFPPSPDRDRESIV
Another assay has as its target hNav1.3 (Homo sapiens, UniProt Q9NY46). The note with it: IonWorks Quattro, use-dependent protocol, hNav1.3; read-out: IWQ Use Nav1.3.

hNav1.7, sequence (Q15858 whole entry, looked up): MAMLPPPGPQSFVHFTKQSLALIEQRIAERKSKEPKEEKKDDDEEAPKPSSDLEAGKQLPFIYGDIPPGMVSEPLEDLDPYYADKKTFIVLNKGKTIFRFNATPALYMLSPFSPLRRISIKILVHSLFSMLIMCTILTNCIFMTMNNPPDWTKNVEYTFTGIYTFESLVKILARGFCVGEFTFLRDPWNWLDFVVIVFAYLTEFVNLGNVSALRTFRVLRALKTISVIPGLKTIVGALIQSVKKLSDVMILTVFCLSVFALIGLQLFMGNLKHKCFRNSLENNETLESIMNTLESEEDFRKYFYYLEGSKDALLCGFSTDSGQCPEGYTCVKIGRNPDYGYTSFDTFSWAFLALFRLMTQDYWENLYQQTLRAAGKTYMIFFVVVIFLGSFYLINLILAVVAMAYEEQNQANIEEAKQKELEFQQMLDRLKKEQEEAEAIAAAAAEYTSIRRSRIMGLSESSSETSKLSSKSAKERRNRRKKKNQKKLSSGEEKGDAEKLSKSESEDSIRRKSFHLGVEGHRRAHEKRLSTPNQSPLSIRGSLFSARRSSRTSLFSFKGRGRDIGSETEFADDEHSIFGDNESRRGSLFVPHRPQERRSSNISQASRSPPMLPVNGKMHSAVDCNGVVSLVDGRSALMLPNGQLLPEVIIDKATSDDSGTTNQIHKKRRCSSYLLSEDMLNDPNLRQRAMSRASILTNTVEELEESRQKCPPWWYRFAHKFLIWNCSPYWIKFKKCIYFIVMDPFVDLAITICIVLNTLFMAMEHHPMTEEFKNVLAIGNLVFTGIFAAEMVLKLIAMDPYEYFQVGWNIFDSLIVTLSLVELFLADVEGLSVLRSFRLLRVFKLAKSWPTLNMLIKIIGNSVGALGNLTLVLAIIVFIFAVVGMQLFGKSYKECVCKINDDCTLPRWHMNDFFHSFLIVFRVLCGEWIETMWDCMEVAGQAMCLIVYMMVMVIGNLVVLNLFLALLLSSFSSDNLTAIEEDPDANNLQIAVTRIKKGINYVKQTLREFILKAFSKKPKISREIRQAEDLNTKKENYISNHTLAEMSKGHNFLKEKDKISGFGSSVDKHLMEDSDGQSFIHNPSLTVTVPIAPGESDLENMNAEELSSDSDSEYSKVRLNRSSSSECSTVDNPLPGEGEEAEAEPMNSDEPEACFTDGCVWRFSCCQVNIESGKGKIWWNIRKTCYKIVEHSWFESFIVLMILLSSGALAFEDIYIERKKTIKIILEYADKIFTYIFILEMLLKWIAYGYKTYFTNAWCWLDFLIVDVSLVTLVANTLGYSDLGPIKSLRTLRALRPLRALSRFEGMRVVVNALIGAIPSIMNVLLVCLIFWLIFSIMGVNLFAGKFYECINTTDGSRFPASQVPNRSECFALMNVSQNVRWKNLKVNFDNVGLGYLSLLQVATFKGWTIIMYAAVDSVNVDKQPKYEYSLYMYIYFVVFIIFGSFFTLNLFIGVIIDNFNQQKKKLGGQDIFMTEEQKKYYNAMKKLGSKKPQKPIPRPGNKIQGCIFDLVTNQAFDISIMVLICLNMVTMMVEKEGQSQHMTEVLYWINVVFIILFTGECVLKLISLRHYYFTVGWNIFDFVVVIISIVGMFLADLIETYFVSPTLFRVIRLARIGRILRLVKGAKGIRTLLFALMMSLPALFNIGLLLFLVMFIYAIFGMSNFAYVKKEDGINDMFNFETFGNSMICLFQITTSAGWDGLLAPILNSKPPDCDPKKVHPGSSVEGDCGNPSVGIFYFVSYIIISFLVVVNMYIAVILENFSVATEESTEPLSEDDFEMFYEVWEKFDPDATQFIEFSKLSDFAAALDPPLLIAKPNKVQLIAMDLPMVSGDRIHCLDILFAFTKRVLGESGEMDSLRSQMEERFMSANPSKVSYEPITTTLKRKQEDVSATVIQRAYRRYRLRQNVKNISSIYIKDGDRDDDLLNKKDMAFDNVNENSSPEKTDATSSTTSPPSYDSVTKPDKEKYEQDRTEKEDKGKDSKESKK

Regarding `CC[C@H](C)[C@@H]1NC(=O)[C@@H]2CSSC[C@@H]3NC(=O)[C@H](C(C)C)NC(=O)[C@H](CC(C)C)NC(=O)[C@H](CC(N)=O)NC(=O)[C@@H]4CCCN4C(=O)[C@H](CCCNC(=N)N)NC(=O)[C@H](CSSC[C@H](NC(=O)[C@@H](N)CC(=O)O)C(=O)N[C@@H](CC(C)C)C(=O)NCC(=O)N[C@@H](C(C)(C)C)C(=O)N[C@@H](CC(C)C)C(=O)N[C@@H](CCCNC(=N)N)C(=O)N[C@@H](CCCCN)C(=O)N2)NC(=O)[C@H](CSSC[C@@H](C(=O)N[C@@H](CCCCN)C(=O)N[C@@H](Cc2ccc(O)cc2)C(=O)N[C@H](C(=O)N[C@@H](Cc2ccccc2)C(N)=O)C(C)C)NC(=O)[C@H](Cc2c[nH]c4ccccc24)NC(=O)[C@H](CCCCN)NC(=O)[C@H](Cc2c[nH]cn2)NC(=O)[C@H]([C@@H](C)O)NC(=O)[C@H](CCCNC(=N)N)NC(=O)[C@H](CO)NC3=O)NC(=O)[C@H](CCCCN)NC(=O)[C@H](CC(=O)O)NC(=O)[C@H](CC(N)=O)NC(=O)[C@H](CC(=O)O)NC(=O)[C@@H]2CCCN2C1=O` [compound 659], the values for the IC50 at hNav1.7, on hNav1.5 and at hNav1.3 were 0.26 µM, greater than 5 µM and 0.58 µM, respectively.
In the same order, the values of `CC[C@H](C)[C@@H]1NC(=O)[C@@H]2CSSC[C@@H]3NC(=O)[C@H](C(C)C)NC(=O)[C@H](CC(C)C)NC(=O)[C@H](CC(N)=O)NC(=O)[C@@H]4CCCN4C(=O)[C@H](CCCNC(=N)N)NC(=O)[C@H](CSSC[C@H](NC(=O)[C@@H](N)CC(=O)O)C(=O)N[C@@H](CC(C)C)C(=O)NCC(=O)N[C@@H](CCC(C)C)C(=O)N[C@@H](CC(C)C)C(=O)N[C@@H](CCCNC(=N)N)C(=O)N[C@@H](CCCCN)C(=O)N2)NC(=O)[C@H](CSSC[C@@H](C(=O)N[C@@H](CCCCN)C(=O)N[C@@H](Cc2ccc(O)cc2)C(=O)N[C@H](C(=O)N[C@@H](Cc2ccccc2)C(N)=O)C(C)C)NC(=O)[C@H](Cc2c[nH]c4ccccc24)NC(=O)[C@H](CCCCN)NC(=O)[C@H](Cc2c[nH]cn2)NC(=O)[C@H]([C@@H](C)O)NC(=O)[C@H](CCCNC(=N)N)NC(=O)[C@H](CO)NC3=O)NC(=O)[C@H](CCCCN)NC(=O)[C@H](CC(=O)O)NC(=O)[C@H](CC(N)=O)NC(=O)[C@H](CC(=O)O)NC(=O)[C@@H]2CCCN2C1=O` [compound 660] are 0.031 µM, greater than 5 µM and 0.059 µM.
In the same order, the values of `CC[C@H](C)[C@@H]1NC(=O)[C@@H]2CSSC[C@@H]3NC(=O)[C@H](C(C)C)NC(=O)[C@H](CC(C)C)NC(=O)[C@H](CC(N)=O)NC(=O)[C@@H]4CCCN4C(=O)[C@H](CCCNC(=N)N)NC(=O)[C@H](CSSC[C@H](NC(=O)[C@@H](N)CC(=O)O)C(=O)N[C@@H](CC(C)C)C(=O)NCC(=O)N[C@@H](CC(C)C)C(=O)N[C@@H](CC(C)C)C(=O)N[C@@H](CCCNC(=N)N)C(=O)N[C@@H](CCCCN)C(=O)N2)NC(=O)[C@H](CSSC[C@@H](C(=O)N[C@@H](CCCCN)C(=O)N[C@@H](Cc2ccc(O)cc2)C(=O)N[C@H](C(=O)N[C@@H](Cc2ccccc2)C(N)=O)C(C)C)NC(=O)[C@H](Cc2c[nH]c4ccccc24)NC(=O)[C@H](CCCCN)NC(=O)[C@H](Cc2c[nH]cn2)NC(=O)[C@H]([C@@H](C)O)NC(=O)[C@H](CCCNC(=N)N)NC(=O)[C@H](CO)NC3=O)NC(=O)[C@H](CCCCN)NC(=O)[C@H](CC(=O)O)NC(=O)[C@H](CC(N)=O)NC(=O)[C@H](CC(=O)O)NC(=O)[C@@H]2CCCN2C1=O` [compound 661] (H-DCLGLLRKCIPDNDKCCRPNLVCSRTHKWCKYVF-NH2; disulfide 2-17, 9-23, 16-30) are 0.095 µM, greater than 5 µM and 0.32 µM.
Consider `CC[C@H](C)[C@@H]1NC(=O)[C@@H]2CSSC[C@@H]3NC(=O)[C@H](C(C)C)NC(=O)[C@H](CC(C)C)NC(=O)[C@H](CC(N)=O)NC(=O)[C@@H]4CCCN4C(=O)[C@H](CCCNC(=N)N)NC(=O)[C@H](CSSC[C@H](NC(=O)[C@@H](N)CC(=O)O)C(=O)N[C@@H](CC(C)C)C(=O)NCC(=O)N[C@@H](Cc4cccs4)C(=O)N[C@@H](CC(C)C)C(=O)N[C@@H](CCCNC(=N)N)C(=O)N[C@@H](CCCCN)C(=O)N2)NC(=O)[C@H](CSSC[C@@H](C(=O)N[C@@H](CCCCN)C(=O)N[C@@H](Cc2ccc(O)cc2)C(=O)N[C@H](C(=O)N[C@@H](Cc2ccccc2)C(N)=O)C(C)C)NC(=O)[C@H](Cc2c[nH]c4ccccc24)NC(=O)[C@H](CCCCN)NC(=O)[C@H](Cc2c[nH]cn2)NC(=O)[C@H]([C@@H](C)O)NC(=O)[C@H](CCCNC(=N)N)NC(=O)[C@H](CO)NC3=O)NC(=O)[C@H](CCCCN)NC(=O)[C@H](CC(=O)O)NC(=O)[C@H](CC(N)=O)NC(=O)[C@H](CC(=O)O)NC(=O)[C@@H]2CCCN2C1=O` [compound 662], for which the IC50 is 0.022 µM at hNav1.7, greater than 5 µM on hNav1.5 and 0.068 µM at hNav1.3.
The matching figures for `CC[C@H](C)[C@@H]1NC(=O)[C@@H]2CSSC[C@@H]3NC(=O)[C@H](C(C)C)NC(=O)[C@H](CC(C)C)NC(=O)[C@H](CC(N)=O)NC(=O)[C@@H]4CCCN4C(=O)[C@H](CCCNC(=N)N)NC(=O)[C@H](CSSC[C@H](NC(=O)[C@@H](N)CC(=O)O)C(=O)N[C@@H](CC(C)C)C(=O)NCC(=O)N[C@@H](C4CCCC4)C(=O)N[C@@H](CC(C)C)C(=O)N[C@@H](CCCNC(=N)N)C(=O)N[C@@H](CCCCN)C(=O)N2)NC(=O)[C@H](CSSC[C@@H](C(=O)N[C@@H](CCCCN)C(=O)N[C@@H](Cc2ccc(O)cc2)C(=O)N[C@H](C(=O)N[C@@H](Cc2ccccc2)C(N)=O)C(C)C)NC(=O)[C@H](Cc2c[nH]c4ccccc24)NC(=O)[C@H](CCCCN)NC(=O)[C@H](Cc2c[nH]cn2)NC(=O)[C@H]([C@@H](C)O)NC(=O)[C@H](CCCNC(=N)N)NC(=O)[C@H](CO)NC3=O)NC(=O)[C@H](CCCCN)NC(=O)[C@H](CC(=O)O)NC(=O)[C@H](CC(N)=O)NC(=O)[C@H](CC(=O)O)NC(=O)[C@@H]2CCCN2C1=O` [compound 663]: 0.059 µM, greater than 5 µM and 0.24 µM.
The matching figures for `CC[C@H](C)[C@@H]1NC(=O)[C@@H]2CSSC[C@@H]3NC(=O)[C@H](C(C)C)NC(=O)[C@H](CC(C)C)NC(=O)[C@H](CC(N)=O)NC(=O)[C@@H]4CCCN4C(=O)[C@H](CCCNC(=N)N)NC(=O)[C@H](CSSC[C@H](NC(=O)[C@@H](N)CC(=O)O)C(=O)N[C@@H](CC(C)C)C(=O)NCC(=O)N[C@@H](C4CCCCC4)C(=O)N[C@@H](CC(C)C)C(=O)N[C@@H](CCCNC(=N)N)C(=O)N[C@@H](CCCCN)C(=O)N2)NC(=O)[C@H](CSSC[C@@H](C(=O)N[C@@H](CCCCN)C(=O)N[C@@H](Cc2ccc(O)cc2)C(=O)N[C@H](C(=O)N[C@@H](Cc2ccccc2)C(N)=O)C(C)C)NC(=O)[C@H](Cc2c[nH]c4ccccc24)NC(=O)[C@H](CCCCN)NC(=O)[C@H](Cc2c[nH]cn2)NC(=O)[C@H]([C@@H](C)O)NC(=O)[C@H](CCCNC(=N)N)NC(=O)[C@H](CO)NC3=O)NC(=O)[C@H](CCCCN)NC(=O)[C@H](CC(=O)O)NC(=O)[C@H](CC(N)=O)NC(=O)[C@H](CC(=O)O)NC(=O)[C@@H]2CCCN2C1=O` [compound 664]: 0.019 µM, greater than 5 µM and 0.11 µM.
In the case of `CC[C@H](C)[C@@H]1NC(=O)[C@@H]2CSSC[C@@H]3NC(=O)[C@H](C(C)C)NC(=O)[C@H](CC(C)C)NC(=O)[C@H](CC(N)=O)NC(=O)[C@@H]4CCCN4C(=O)[C@H](CCCNC(=N)N)NC(=O)[C@H](CSSC[C@H](NC(=O)[C@@H](N)CC(=O)O)C(=O)N[C@@H](CC(C)C)C(=O)NCC(=O)N[C@@H](Cc4ccc(C(=O)c5ccccc5)cc4)C(=O)N[C@@H](CC(C)C)C(=O)N[C@@H](CCCNC(=N)N)C(=O)N[C@@H](CCCCN)C(=O)N2)NC(=O)[C@H](CSSC[C@@H](C(=O)N[C@@H](CCCCN)C(=O)N[C@@H](Cc2ccc(O)cc2)C(=O)N[C@H](C(=O)N[C@@H](Cc2ccccc2)C(N)=O)C(C)C)NC(=O)[C@H](Cc2c[nH]c4ccccc24)NC(=O)[C@H](CCCCN)NC(=O)[C@H](Cc2c[nH]cn2)NC(=O)[C@H]([C@@H](C)O)NC(=O)[C@H](CCCNC(=N)N)NC(=O)[C@H](CO)NC3=O)NC(=O)[C@H](CCCCN)NC(=O)[C@H](CC(=O)O)NC(=O)[C@H](CC(N)=O)NC(=O)[C@H](CC(=O)O)NC(=O)[C@@H]2CCCN2C1=O` [compound 665], the IC50 on hNav1.7 was 0.23 µM; at hNav1.5, greater than 5 µM; at hNav1.3, 0.03 µM.
In the same order, the values of `CC[C@H](C)[C@@H]1NC(=O)[C@@H]2CSSC[C@@H]3NC(=O)[C@H](C(C)C)NC(=O)[C@H](CC(C)C)NC(=O)[C@H](CC(N)=O)NC(=O)[C@@H]4CCCN4C(=O)[C@H](CCCNC(=N)N)NC(=O)[C@H](CSSC[C@H](NC(=O)[C@@H](N)CC(=O)O)C(=O)N[C@@H](CC(C)C)C(=O)NCC(=O)N[C@@H](Cc4ccc(Cl)c(Cl)c4)C(=O)N[C@@H](CC(C)C)C(=O)N[C@@H](CCCNC(=N)N)C(=O)N[C@@H](CCCCN)C(=O)N2)NC(=O)[C@H](CSSC[C@@H](C(=O)N[C@@H](CCCCN)C(=O)N[C@@H](Cc2ccc(O)cc2)C(=O)N[C@H](C(=O)N[C@@H](Cc2ccccc2)C(N)=O)C(C)C)NC(=O)[C@H](Cc2c[nH]c4ccccc24)NC(=O)[C@H](CCCCN)NC(=O)[C@H](Cc2c[nH]cn2)NC(=O)[C@H]([C@@H](C)O)NC(=O)[C@H](CCCNC(=N)N)NC(=O)[C@H](CO)NC3=O)NC(=O)[C@H](CCCCN)NC(=O)[C@H](CC(=O)O)NC(=O)[C@H](CC(N)=O)NC(=O)[C@H](CC(=O)O)NC(=O)[C@@H]2CCCN2C1=O` [compound 666] are 0.029 µM, 4.5 µM and 0.016 µM.
